{
  "source": "ChEMBL document CHEMBL4043128",
  "about": "“Design, synthesis and biological evaluation of Lenalidomide derivatives as tumor angiogenesis inhibitor” (Bioorg Med Chem Lett, 2017)",
  "key": {"EC9706 [1]": {"test_system": "EC9706", "test": "Antiproliferative activity against human EC9706 cells after 48 hrs by CCK-8 assay", "format": "functional, cell-based", "conditions": "for IC50: EC9706, 48 h"}, "EC9706 [2]": {"test_system": "EC9706", "test": "Antiproliferative activity against human EC9706 cells at >= 600 ug/mL after 48 hrs by CCK-8 assay relative to control", "format": "functional"}, "EC9706 [3]": {"test_system": "EC9706", "test": "Antiproliferative activity against human EC9706 cells at 150 ug/mL after 48 hrs by CCK-8 assay", "format": "functional, cell-based"}},
  "note": "The source made the active and inactive calls. No cut-off for these calls is given here.",
  "data": [
    {"smiles": "Nc1cccc2c1CN(C1CCC(=O)NC1=O)C2=O", "note": "(stereo unspecified) [LENALIDOMIDE]", "values": [
      {"measurement": "Activity", "setting": "EC9706 [1]", "value": "Dose-dependent effect"},
      {"measurement": "IC50", "setting": "EC9706 [1]", "value": 340, "unit": "µg/mL"},
      {"measurement": "Activity", "setting": "EC9706 [2]", "value": 100, "unit": "%"},
      {"measurement": "Activity", "setting": "EC9706 [3]", "value": "Active"}
    ]},
    {"smiles": "Cc1ccc(C(=O)Nc2cccc3c2CN(C2CCC(=O)NC2=O)C3=O)cc1", "note": "(stereo unspecified)", "values": [
      {"measurement": "Activity", "setting": "EC9706 [1]", "value": "Dose-dependent effect"},
      {"measurement": "IC50", "setting": "EC9706 [1]", "value": 262, "unit": "µg/mL"},
      {"measurement": "Activity", "setting": "EC9706 [2]", "value": 100, "unit": "%"},
      {"measurement": "Activity", "setting": "EC9706 [3]", "value": "Active"}
    ]},
    {"smiles": "Cc1ccc(CNc2cccc3c2CN(C2CCC(=O)NC2=O)C3=O)cc1", "note": "(stereo unspecified)", "values": [
      {"measurement": "Activity", "setting": "EC9706 [1]", "value": "Dose-dependent effect"},
      {"measurement": "IC50", "setting": "EC9706 [1]", "value": 310, "unit": "µg/mL"},
      {"measurement": "Activity", "setting": "EC9706 [2]", "value": 100, "unit": "%"},
      {"measurement": "Activity", "setting": "EC9706 [3]", "value": "Active"}
    ]},
    {"smiles": "Cc1ccc(S(=O)(=O)Nc2cccc3c2CN(C2CCC(=O)NC2=O)C3=O)cc1", "note": "(stereo unspecified)", "values": [
      {"measurement": "Activity", "setting": "EC9706 [1]", "value": "Dose-dependent effect"},
      {"measurement": "IC50", "setting": "EC9706 [1]", "value": 225, "unit": "µg/mL"},
      {"measurement": "Activity", "setting": "EC9706 [2]", "value": 100, "unit": "%"},
      {"measurement": "Activity", "setting": "EC9706 [3]", "value": "Active"}
    ]}
  ]
}
